ChEMBL document CHEMBL3102783, “Structural studies, homology modeling and molecular docking of novel non-competitive antagonists of GluK1/GluK2 receptors” (Bioorg Med Chem, 2014)
pIC50: −log10 of the molar value.

What was measured:
[1] = target: T1, Glutamate receptor ionotropic, kainate 2 (Homo sapiens, UniProt Q13002); experiment: Displacement of [3H]-kainate from GluK2 receptor (unknown origin)
[2] = target: T2, Glutamate receptor ionotropic, kainate 1 (Homo sapiens, UniProt P39086); experiment: Displacement of [3H]-kainate from GluK1 receptor (unknown origin) at 100 uM
[3] = target: T1, Glutamate receptor ionotropic, kainate 2; experiment: Displacement of [3H]-kainate from GluK2 receptor (unknown origin) at 100 uM
[4] = target: T2, Glutamate receptor ionotropic, kainate 1; experiment: Displacement of [3H]-kainate from GluK1 receptor (unknown origin)

T2 sequence (P39086 whole entry): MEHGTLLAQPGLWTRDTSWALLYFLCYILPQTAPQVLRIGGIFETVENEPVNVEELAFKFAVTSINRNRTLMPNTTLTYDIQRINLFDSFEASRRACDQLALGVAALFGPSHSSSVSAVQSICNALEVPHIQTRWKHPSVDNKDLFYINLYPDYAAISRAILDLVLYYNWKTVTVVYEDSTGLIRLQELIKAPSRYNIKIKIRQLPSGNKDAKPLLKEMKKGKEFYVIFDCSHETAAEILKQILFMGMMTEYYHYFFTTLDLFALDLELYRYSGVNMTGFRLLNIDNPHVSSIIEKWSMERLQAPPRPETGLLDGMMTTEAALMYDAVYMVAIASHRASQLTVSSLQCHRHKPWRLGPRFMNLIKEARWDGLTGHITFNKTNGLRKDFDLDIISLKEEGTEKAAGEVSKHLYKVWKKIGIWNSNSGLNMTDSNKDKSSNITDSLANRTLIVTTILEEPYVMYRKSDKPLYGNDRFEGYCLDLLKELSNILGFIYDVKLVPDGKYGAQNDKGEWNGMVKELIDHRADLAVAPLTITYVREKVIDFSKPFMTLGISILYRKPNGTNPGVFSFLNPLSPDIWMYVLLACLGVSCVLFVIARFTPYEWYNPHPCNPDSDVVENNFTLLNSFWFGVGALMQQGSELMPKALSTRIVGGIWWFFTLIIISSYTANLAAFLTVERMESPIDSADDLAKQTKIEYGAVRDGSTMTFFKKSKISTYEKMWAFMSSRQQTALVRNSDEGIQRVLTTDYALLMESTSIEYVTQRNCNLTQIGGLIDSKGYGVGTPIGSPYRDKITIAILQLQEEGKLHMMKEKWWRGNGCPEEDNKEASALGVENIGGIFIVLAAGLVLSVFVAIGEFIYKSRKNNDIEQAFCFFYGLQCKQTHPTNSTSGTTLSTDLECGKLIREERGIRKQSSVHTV
T1 sequence (Q13002 whole entry): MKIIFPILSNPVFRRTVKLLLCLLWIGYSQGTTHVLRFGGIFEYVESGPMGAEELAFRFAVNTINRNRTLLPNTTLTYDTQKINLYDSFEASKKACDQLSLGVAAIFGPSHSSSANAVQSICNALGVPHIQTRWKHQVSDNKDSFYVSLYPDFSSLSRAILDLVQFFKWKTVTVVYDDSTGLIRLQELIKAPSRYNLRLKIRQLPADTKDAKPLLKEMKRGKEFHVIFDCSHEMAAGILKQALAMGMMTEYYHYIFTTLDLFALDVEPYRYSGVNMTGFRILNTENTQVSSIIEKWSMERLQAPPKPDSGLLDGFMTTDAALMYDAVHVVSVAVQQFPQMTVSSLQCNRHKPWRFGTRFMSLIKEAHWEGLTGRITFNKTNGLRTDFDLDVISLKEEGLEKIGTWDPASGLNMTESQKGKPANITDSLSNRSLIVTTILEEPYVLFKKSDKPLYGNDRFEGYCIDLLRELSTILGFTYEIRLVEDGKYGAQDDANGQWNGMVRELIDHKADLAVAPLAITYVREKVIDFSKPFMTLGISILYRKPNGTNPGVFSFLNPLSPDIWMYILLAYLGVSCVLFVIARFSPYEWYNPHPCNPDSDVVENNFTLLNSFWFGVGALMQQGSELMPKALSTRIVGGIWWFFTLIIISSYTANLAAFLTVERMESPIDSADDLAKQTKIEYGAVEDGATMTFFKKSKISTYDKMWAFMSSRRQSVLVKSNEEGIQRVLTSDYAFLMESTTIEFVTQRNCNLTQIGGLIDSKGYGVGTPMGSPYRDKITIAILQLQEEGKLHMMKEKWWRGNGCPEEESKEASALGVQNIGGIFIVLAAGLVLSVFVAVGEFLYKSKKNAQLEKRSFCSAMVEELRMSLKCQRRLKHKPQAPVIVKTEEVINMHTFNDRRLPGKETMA

| pIC50 [1] | inhibition [2] [%] | inhibition [3] [%] | pIC50 [4] | SMILES |
| --- | --- | --- | --- | --- |
| 5.00 | 32 | – | – | CCn1c(-c2ccc(OC)cc2)c(C)c2ccccc21 |
| 5.22 | 32 | – | – | CCn1c(-c2ccccc2)c(C)c2cc(OC)ccc21 |
| – | 0 | 1 | – | CCn1c2c(c3cc(OC)ccc31)CCc1ccccc1-2 |

The remaining lines, values behind:

| SMILES | pIC50 [1] | inhibition [2] [%] | inhibition [3] [%] | pIC50 [4] |
| --- | --- | --- | --- | --- |
| COc1ccc(-c2c(C)c3cc(OC)ccc3n2Cc2ccc(Cl)cc2)cc1 | – | 0 | 20 | – |
| CCn1c(-c2ccc(OC)cc2)c(C)c2cc(OC)ccc21 | 6.15 | – | – | 5.40 |
| CCn1c(-c2ccccc2)cc2cc(OC)ccc21 | 5.17 | – | – | 4.92 |
